Data as given in PMC5118871 (Molecular microbiology, 2016).

B1: L. monocytogenes OpuCA (LmOpuCA) tandem CBS domains (residues 247–371) (domain or fragment, UniProt Q9KHT9 247-371, looked up)
chain: DVTQVAQIMNTNPVSITADKSLQAAITVMKEKRVDTLLVVDEGNVLKGFIDVEQIDLNRRTATSVMDIIEKNVFYVYEDTLLRDTVQRILKRGYKYIPVVDKDKRLVGIVTRASLVDIVYDSIWG

How the values were obtained:
[1] = molecular target: T1, LmOpuCA tandem CBS domains (residues 247–371) (Listeria monocytogenes, UniProt Q9KHT9); experiment: X-ray crystal structure, […] Å, crystal soaked with c-di-AMP; assay type: binding; conditions: one c-di-AMP per dimer, at the dimer interface; pH 9.0
T1 sequence (Q9KHT9 247-371): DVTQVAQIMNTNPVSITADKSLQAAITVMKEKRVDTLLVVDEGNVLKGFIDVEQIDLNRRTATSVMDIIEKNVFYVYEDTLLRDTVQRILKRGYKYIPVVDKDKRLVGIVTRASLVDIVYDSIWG

crystal structure = molecular target: the molecule itself; experiment: crystal structure

Row | Molecule | X-ray crystal structure, 2.9 Å, crystal soaked with c-di-AMP [1] | stoichiometry N (crystal structure)
1 | Nc1ncnc2c1ncn2[C@@H]1O[C@@H]2COP(=O)(O)O[C@H]3[C@@H](O)[C@H](n4cnc5c(N)ncnc54)O[C@@H]3COP(=O)(O)O[C@H]2[C@H]1O [c-di-AMP] | We observed clear electron density for one c-di-AMP molecule bound to the OpuCA dimer | –
2 | B1 | – | 2
